# Measured values taken from patent US20260123630A1, “COMPOSITIONS INCLUDING ENCAPSULATED BIXLOZONE AND NON ENCAPSULATED BIXLOZONE” (FMC CORPORATION, priority 2022, published 2026).
# System: corn
# Experiment: Crop injury studies in corn
# Assay type: in vivo
# Protocol: The maximum crop injury from encapsulated and non-encapsulated bixlozone compositions were assessed for corn. The compositions were applied at post-seeding pre-emergence and post-emergence.
# The numbers in parentheses indicate the application rate of the applied compositions in g ai/ha.
smiles,measurement,setting,value
CCCCCC(C)OC(=O)COc1ccc(Cl)c2cccnc12 (centres unmarked) [cloquintocet-mexyl],Effect of mixture partner on crop injury (in words),"post-emergence BBCH 11-12, FIG. 5",no observed effect
same,Effect of mixture partner on crop injury (in words),"post-emergence BBCH 13-15, FIG. 6",no observed effect
